{"source": "patent US9119396B2", "about": "“Method for promoting plant growth” (SUMITOMO CHEMICAL COMPANY, LIMITED, priority 2011, dated 2015)", "key": {"[1]": {"system": "Rice (cultivar: Nipponbare)", "assay": "Test Example 4: reduction of low-temperature stress by immersion treatment of rice", "type": "in vivo", "conditions": "rice seedlings, immersion at 1 ppm for 2 days; low-temperature stress 4° C. 5 days, then 4 days at 25° C.", "procedure": "Evaluation Test for Reduction of Low-Temperature Stress by Immersion Treatment of Rice Rice (cultivar: Nipponbare) A necessary amount of rice seeds was immersed in an aqueous solution of 1,000 ppm of Benlate, and incubated at 30° C. overnight under dark conditions. The aqueous solution of Benlate was replaced with distilled water, and the seeds were further incubated at 30° C. overnight under dark conditions to stimulate the germination of the seeds. A filter paper was placed on the holes of a plug tray having 406 holes, and the rice seeds obtained after the stimulation of germination were sown on the filter paper. To the rice seeds was added a kimura B solution for hydroponics (see Plant Science 119: 39-47 (1996)) at ½ concentration, and cultivated for 5 days in an artificial weather control room under the following conditions: • temperature: 28° C. in daytime/23° C. in night, humidity: 70%, illuminance: 8,500 lux, and day length: 12 hours. <Compound Treatment> A DMSO solution of 1,000 ppm of the present compound 1 was prepared, and diluted with a kimura B solution for hydroponics at ½ concentration. The solution for hydroponics containing the compound was dispensed into the wells of a 24-well plate at 2 ml per well. […] In the treated group, the experiment was performed in duplication and the average value of the green area per individual was calculated. […]"}, "[2]": {"system": "Rice (cultivar: Nipponbare)", "assay": "Test Example 11: reduction of drought stress by treatment of rice seeds", "type": "in vivo", "conditions": "rice seed treatment, 100 g per 100 kg of seeds; drought stress 2 days, then 14 days cultivation", "procedure": "Evaluation Test for Reduction of Drought Stress by Treatment of Rice Seeds Rice (cultivar: Nipponbare) A blank slurry solution containing 5% (V/V) color coat red (Becker Underwood, Inc.), 5% (V/V) CF-Clear (Becker Underwood, Inc.) and 1% Maxim XL (Syngenta) was prepared. A slurry solution was prepared by dissolving the present compound 1 in the blank slurry solution such that 100 g of the compound is applied to each 100 kg of rice seeds. In a 50-ml centrifuge tube (manufactured by AGC TECHNO GLASS CO., LTD.), 0.3 ml of the slurry solution was placed for each 10 g of rice seeds and stirred until the solution was dried, thereby coating the seeds. In addition, seeds were coated with the blank slurry solution and used as seeds for a non-treated group. A filter paper was placed on the holes of a plug tray having 406 holes, and the rice seeds treated above were sown on the filter paper. […] Fourteen (14) days after the treatment, the fresh weight of the overground parts of five test plants in each treated group was measured. The experiment was performed in three replications in each treated group and the average value was calculated. […]"}}}
{"smiles": "COC(=O)c1cc2cc(C(F)(F)F)ccc2s1", "note": "[compound 1]", "values": [{"measurement": "green area of the overground part of the plant vs non-treated group", "setting": "[1]", "value": "much larger"}, {"measurement": "fresh weight of the overground part of plants vs non-treated group", "setting": "[2]", "value": "much heavier"}]}
